Each block holds one compound with its values, some of them ahead of it.
System: 299254-011-R-J1-PDC complex spheroids viability
Assay: Anticancer human tumor 299254-011-R-J1-PDC patient-derived melanoma cell line growth inhibition [GQUAD]
Settings: for IC50: curve of first compound; for viability, T/C: stronger effect = lower value
Outline: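 Multi-cell-type spheroids of tumor cells with HUVEC and mesenchymal stem cells, treated with drug combinations. Concentrations descend in half-log steps from near clinical Cmax, or from 10 microM where Cmax is unknown; viability read-out.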

[1] = second compound 0.0316 µM, first compound 0.0316 µM
[2] = second compound 0.0316 µM, first compound 0.1 µM
[3] = second compound 0.0316 µM, first compound 0.316 µM
[4] = second compound 0.0316 µM, first compound 1 µM
[5] = second compound 0.0316 µM, first compound 3.16 µM
[6] = second compound 0.0316 µM, first compound 10 µM
[7] = second compound 0.1 µM, first compound 0.0316 µM
[8] = second compound 0.1 µM, first compound 0.1 µM
[9] = second compound 0.1 µM, first compound 0.316 µM
[10] = second compound 0.1 µM, first compound 1 µM
[11] = second compound 0.1 µM, first compound 3.16 µM
[12] = second compound 0.1 µM, first compound 10 µM
[13] = second compound 0.316 µM, first compound 0.0316 µM
[14] = second compound 0.316 µM, first compound 0.1 µM
[15] = second compound 0.316 µM, first compound 0.316 µM
[16] = second compound 0.316 µM, first compound 1 µM
[17] = second compound 0.316 µM, first compound 3.16 µM
[18] = second compound 0.316 µM, first compound 10 µM
[19] = second compound 1 µM, first compound 0.0316 µM
[20] = second compound 1 µM, first compound 0.1 µM
[21] = second compound 1 µM, first compound 0.316 µM
[22] = second compound 1 µM, first compound 1 µM
[23] = second compound 1 µM, first compound 3.16 µM
[24] = second compound 1 µM, first compound 10 µM
[25] = second compound 3.16 µM, first compound 0.0316 µM
[26] = second compound 3.16 µM, first compound 0.1 µM
[27] = second compound 3.16 µM, first compound 0.316 µM
[28] = second compound 3.16 µM, first compound 1 µM
[29] = second compound 3.16 µM, first compound 3.16 µM
[30] = second compound 3.16 µM, first compound 10 µM
[31] = second compound 10 µM, first compound 0.0316 µM
[32] = second compound 10 µM, first compound 0.1 µM
[33] = second compound 10 µM, first compound 0.316 µM
[34] = second compound 10 µM, first compound 1 µM
[35] = second compound 10 µM, first compound 3.16 µM
[36] = second compound 10 µM, first compound 10 µM
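Note: spheroids exposed to the agents for seven days before readout.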
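Throughout, for viability, T/C: percent viability relative to DMSO vehicle control wells = 100%.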

SMILES: C=CCn1c(=O)c2cnc(Nc3ccc(N4CCN(C)CC4)cc3)nc2n1-c1cccc(C(C)(C)O)n1 + Cc1[nH]c2ccc(F)cc2c1-c1nc2c3cccnc3c3ncccc3c2[nH]1
- IC50 (second compound 0.0316 µM): 1960 nM
- IC50 (second compound 0.1 µM): 1460 nM
- IC50 (second compound 0.316 µM): 2120 nM
- IC50 (second compound 1 µM): 2070 nM
- IC50 (second compound 3.16 µM): 1560 nM
- IC50 (second compound 10 µM): 929 nM
- viability, T/C [1]: 95.6%
- viability, T/C [2]: 101%
- viability, T/C [3]: 101%
- viability, T/C [4]: 69.8%
- viability, T/C [5]: 37.3%
- viability, T/C [6]: 29.8%
- viability, T/C [7]: 117%
- viability, T/C [8]: 112%
- viability, T/C [9]: 115%
- viability, T/C [10]: 59.2%
- viability, T/C [11]: 33.2%
- viability, T/C [12]: 29.2%
- viability, T/C [13]: 108%
- viability, T/C [14]: 108%
- viability, T/C [15]: 94%
- viability, T/C [16]: 70.4%
- viability, T/C [17]: 39.1%
- viability, T/C [18]: 25%
- viability, T/C [19]: 109%
- viability, T/C [20]: 92.7%
- viability, T/C [21]: 92.9%
- viability, T/C [22]: 66.2%
- viability, T/C [23]: 39.4%
- viability, T/C [24]: 23.6%
- viability, T/C [25]: 86.1%
- viability, T/C [26]: 91%
- viability, T/C [27]: 102%
- viability, T/C [28]: 62.3%
- viability, T/C [29]: 33%
- viability, T/C [30]: 27.8%
- viability, T/C [31]: 94.4%
- viability, T/C [32]: 81.9%
- viability, T/C [33]: 85.9%
- viability, T/C [34]: 46.9%
- viability, T/C [35]: 26.4%
- viability, T/C [36]: 19.4%

- IC50 (second compound 0.0316 µM): 1650 nM
- IC50 (second compound 0.1 µM): 2480 nM
- IC50 (second compound 0.316 µM): 1680 nM
- IC50 (second compound 1 µM): 524 nM
- IC50 (second compound 3.16 µM): 517 nM
- IC50 (second compound 10 µM): < 31.6 nM
SMILES: CC1COCCN1c1cc(C2(S(C)(=N)=O)CC2)nc(-c2ccnc3[nH]ccc23)n1 (stereo unspecified) + Cc1cnc(CNC(=O)c2c(=O)c3ccc(N4CCCN(C)CC4)nc3n3c2sc2ccccc23)cn1
- viability, T/C [1]: 93%
- viability, T/C [2]: 89.9%
- viability, T/C [3]: 76.7%
- viability, T/C [4]: 61.8%
- viability, T/C [5]: 36%
- viability, T/C [6]: 22%
- viability, T/C [7]: 80.8%
- viability, T/C [8]: 95.6%
- viability, T/C [9]: 78.9%
- viability, T/C [10]: 79.4%
- viability, T/C [11]: 42.2%
- viability, T/C [12]: 18.7%
- viability, T/C [13]: 80.6%
- viability, T/C [14]: 97.1%
- viability, T/C [15]: 96.7%
- viability, T/C [16]: 69.8%
- viability, T/C [17]: 25.7%
- viability, T/C [18]: 15.6%
- viability, T/C [19]: 71.9%
- viability, T/C [20]: 83.1%
- viability, T/C [21]: 48.7%
- viability, T/C [22]: 44.1%
- viability, T/C [23]: 24.4%
- viability, T/C [24]: 17.1%
- viability, T/C [25]: 76.3%
- viability, T/C [26]: 72.3%
- viability, T/C [27]: 63.7%
- viability, T/C [28]: 31.9%
- viability, T/C [29]: 22.8%
- viability, T/C [30]: 19.1%
- viability, T/C [31]: 0.39%
- viability, T/C [32]: 19.2%
- viability, T/C [33]: 44.1%
- viability, T/C [34]: 26.4%
- viability, T/C [35]: 0.34%
- viability, T/C [36]: 0.27%

SMILES: COc1ncnc(C2CC2)c1-c1ncc2cnn(Cc3ccc(-c4nc(C(F)(F)F)cn4C(C)C)cc3)c2n1 + Cc1[nH]c2ccc(F)cc2c1-c1nc2c3cccnc3c3ncccc3c2[nH]1
- IC50 (second compound 0.0316 µM): > 10000 nM
- IC50 (second compound 0.1 µM): > 10000 nM
- IC50 (second compound 0.316 µM): > 10000 nM
- IC50 (second compound 1 µM): > 10000 nM
- IC50 (second compound 3.16 µM): > 10000 nM
- IC50 (second compound 10 µM): > 10000 nM
- viability, T/C [1]: 106%
- viability, T/C [2]: 98.9%
- viability, T/C [3]: 101%
- viability, T/C [4]: 100%
- viability, T/C [5]: 107%
- viability, T/C [6]: 100%
- viability, T/C [7]: 120%
- viability, T/C [8]: 96.1%
- viability, T/C [9]: 110%
- viability, T/C [10]: 104%
- viability, T/C [11]: 111%
- viability, T/C [12]: 83.5%
- viability, T/C [13]: 105%
- viability, T/C [14]: 107%
- viability, T/C [15]: 98.7%
- viability, T/C [16]: 92%
- viability, T/C [17]: 92.9%
- viability, T/C [18]: 84.6%
- viability, T/C [19]: 129%
- viability, T/C [20]: 107%
- viability, T/C [21]: 102%
- viability, T/C [22]: 94.2%
- viability, T/C [23]: 103%
- viability, T/C [24]: 112%
- viability, T/C [25]: 104%
- viability, T/C [26]: 113%
- viability, T/C [27]: 108%
- viability, T/C [28]: 88.6%
- viability, T/C [29]: 99.8%
- viability, T/C [30]: 106%
- viability, T/C [31]: 91%
- viability, T/C [32]: 100%
- viability, T/C [33]: 108%
- viability, T/C [34]: 114%
- viability, T/C [35]: 106%
- viability, T/C [36]: 81.8%

Reference: PubChem BioAssay AID2060513 (Molecular Pharmacology Branch, DTP, NCI, 2025)
